Assay: solvent given as SMILES

`CCCCOC(=O)c1ccccc1-c1c2ccc(=[N+](CC)CC)cc-2oc2cc(N(CC)CC)ccc12` showed an absorption maximum (in CC#N) of 555 nm, an absorption maximum (in CCO) of 543 nm and an absorption maximum (in CN(C)C=O) of 562 nm. The absorption maximum (in O) was 558 nm.

For `Nc1cc2oc3cc(O)c(F)cc3c(=O)c2cc1F`, the absorption maximum (in CCO) was 366 nm.

`CCCCCCCCCCCCCCn1c(-c2cc(-c3nc4ccc(C)cc4n3CCCCCCCCCCCCCC)cc(-c3nc4ccc(C)cc4n3CCCCCCCCCCCCCC)c2)nc2ccc(C)cc21` showed an absorption maximum (in ClCCl) of 306.5 nm.

`N#Cc1c(-n2nnc3c2CCC2C(CC3)[C@@H]2CO)n([C@H]2C[C@H](O)[C@@H](CO)O2)c2ncnc(N)c12` (some centres not stated) gave an absorption maximum (in CO) of 287 nm.

For `CC1(C)Nc2cc3nc4cc(F)c(F)cc4nc3cc2N1`, the absorption maximum (in CCO) was 440 nm.

Work on `COc1ccc(C#Cc2c3cc4ccccc4cc3c(C#Cc3ccc(OC)cc3)c3cc4ccccc4cc23)cc1` yielded an absorption maximum (in ClCCl) of 666 nm.

Work on `CC1=CC(C)=[N+]2C1=C(c1ccc(-c3ccc(OS(=O)(=O)c4ccc([N+](=O)[O-])cc4[N+](=O)[O-])cc3)s1)c1c(C)cc(C)n1[B-]2(F)F` yielded an absorption maximum (in CO) of 512 nm, an absorption maximum (in Cc1ccccc1) of 518 nm and an absorption maximum (in ClCCl) of 515 nm.

For `CCCCCCCCCCN1C(=O)c2cc(NCCCOCCO)c3c4c(cc(NCCCOCCO)c(c24)C1=O)C(=O)N(CCCCCCCCCC)C3=O`, the absorption maximum (in CO) was 604 nm and the absorption maximum (in ClC(Cl)Cl) was 609 nm.

`O=Cc1cc(O)c(C=O)cc1O` gave an absorption maximum (in C1CCOC1) of 414 nm, an absorption maximum (in C1COCCO1) of 414 nm and an absorption maximum (in CC#N) of 413 nm. It also gave an absorption maximum (in CC(C)=O) of 413 nm, an absorption maximum (in CCCO) of 415 nm and an absorption maximum (in CCO) of 413 nm. For the same compound, the absorption maximum (in CN(C)C=O) was 414 nm, the absorption maximum (in CN(C)P(=O)(N(C)C)N(C)C) was 427 nm and the absorption maximum (in CNC=O) was 377 nm. The absorption maximum (in CO) was 384 nm, the absorption maximum (in CS(C)=O) was 417 nm and the absorption maximum (in NC=O) was 356 nm.

For `COc1ccc2c3ccc(OC)cc3n(-c3ccc(-c4nnc(-c5c(C(C)C)cc(C(C)C)cc5C(C)C)o4)cc3)c2c1`, the absorption maximum (in Cc1ccccc1) was 319 nm.

In the case of `CCCCOC(=O)c1cc(Oc2ccc(OC)cc2)c2c3c(Cl)cc4c5c(cc(Cl)c(c6c(Oc7ccc(OC)cc7)cc(C(=O)OCCCC)c1c26)c53)C(=O)N(c1c(C(C)C)cccc1C(C)C)C4=O`, the absorption maximum (in Cc1ccccc1) is reported as 531 nm.

With `O=S(=O)(c1ccc(-c2ccc(-c3nc4c5ccccc5c5ccccc5c4n3-c3ccccc3)cc2)cc1)c1ccc(-c2ccc(-c3nc4c5ccccc5c5ccccc5c4n3-c3ccccc3)cc2)cc1` the absorption maximum (in C1CCOC1) was 368 nm, the absorption maximum (in CC#N) was 368 nm and the absorption maximum (in CC(C)=O) was 368 nm. For the same compound, the absorption maximum (in CC(C)OC(C)C) was 368 nm, the absorption maximum (in CCCCCC) was 368 nm and the absorption maximum (in CCCCOCCCC) was 368 nm. It also gave an absorption maximum (in CCN(CC)CC) of 368 nm, an absorption maximum (in CCOC(C)=O) of 368 nm and an absorption maximum (in CCOCC) of 368 nm. It also gave an absorption maximum (in CN(C)C=O) of 368 nm, an absorption maximum (in ClC(Cl)Cl) of 368 nm and an absorption maximum (in ClCCl) of 368 nm.

`CCCCOc1cc2ccccc2c2c1oc1cc3ccccc3cc12` showed an absorption maximum (in C1CCOC1) of 351 nm.

For `CCn1c2ccccc2c2cc(/C=C/c3cccc(/C=C/c4ccc5c(c4)c4ccccc4n5CC)[n+]3CCCS(=O)(=O)[O-])ccc21`, the absorption maximum (in C1CCOC1) was 460 nm, the absorption maximum (in CC#N) was 454 nm and the absorption maximum (in CC(C)=O) was 458 nm. The absorption maximum (in Cc1ccccc1) was 453 nm.

In the case of `C(=C1c2ccccc2CCc2ccccc21)c1ccc(-c2ccc(C=C3c4ccccc4CCc4ccccc43)cc2)cc1`, the absorption maximum (in C1CCOC1) is reported as 335 nm.

`COc1cccc(/C=C/c2ccccc2)c1` gave an absorption maximum (in CC#N) of 295 nm.

In the case of `c1cc2ccc3cccc4ccc(c1)c2c34`, the absorption maximum (in C1CCCCC1) is reported as 334 nm, the absorption maximum (in CC#N) is reported as 335 nm and the absorption maximum (in CCCCCC) is reported as 330 nm. The absorption maximum (in CCO) was 334 nm, the absorption maximum (in CCOC(C)=O) was 335 nm and the absorption maximum (in CO) was 330 nm. It also gave an absorption maximum (in Cc1ccccc1) of 362 nm, an absorption maximum (in ClC(Cl)Cl) of 337 nm and an absorption maximum (in ClCCl) of 333 nm.

`c1cc2ccc3cc4cccc5ccc6cc(c1)c2c3c6c54` showed an absorption maximum (in ClCCl) of 433 nm.

Work on `C(=C\c1ccncn1)/c1ccc(N(c2ccccc2)c2ccccc2)cc1` yielded an absorption maximum (in C1CCOC1) of 398 nm, an absorption maximum (in CC#N) of 394 nm and an absorption maximum (in CCCCCCC) of 392 nm. It also gave an absorption maximum (in CS(C)=O) of 401 nm and an absorption maximum (in ClCCl) of 400 nm.

Compound `Cc1cc(C)c([B-]2(c3c(C)cc(C)cc3C)[O+]=P(c3ccccc3)(c3ccccc3)c3cc(C#Cc4ccccc4)sc3-c3sc(C#Cc4ccccc4)cc32)c(C)c1` has an absorption maximum (in C1CCOC1) of 417 nm.

Compound `N#Cc1ccc(/C=C/C=C/C2=NC3C(=O)NC(N)=NC3N2[C@H]2C[C@H](O)[C@@H](CO)O2)cc1` (some centres not stated) has an absorption maximum (in C1COCCO1) of 395 nm, an absorption maximum (in CC#N) of 387 nm and an absorption maximum (in CO) of 381 nm.

Work on `c1ccc2c(c1)c1ccccc1n2-c1ccc(-c2ccc3nc(-c4ccc(-n5c6ccccc6c6ccccc65)cc4)nn3c2)cc1` yielded an absorption maximum (in C1CCOC1) of 341 nm.

— the Deep4Chem optical property database
